Source: paper PMC4381582, “RNA interference screening identifies a novel role for PCTK1/CDK16 in medulloblastoma with c-Myc amplification” (Oncotarget, 2014)

Target: T1, PCTAIRE1 (PCTK1/CDK16) (Homo sapiens, UniProt Q00536)
T1 construct: recombinant GST-fusion or His-tagged protein from human cDNA, expressed in Sf9 insect cells or E. coli; with CycY (cyclin Y)
Test: radiometric protein kinase assay ([…]PanQinase) with GSK3([…]-27) peptide substrate
Assay type: biochemical

T1 sequence (Q00536 whole entry, the tested form may be a part): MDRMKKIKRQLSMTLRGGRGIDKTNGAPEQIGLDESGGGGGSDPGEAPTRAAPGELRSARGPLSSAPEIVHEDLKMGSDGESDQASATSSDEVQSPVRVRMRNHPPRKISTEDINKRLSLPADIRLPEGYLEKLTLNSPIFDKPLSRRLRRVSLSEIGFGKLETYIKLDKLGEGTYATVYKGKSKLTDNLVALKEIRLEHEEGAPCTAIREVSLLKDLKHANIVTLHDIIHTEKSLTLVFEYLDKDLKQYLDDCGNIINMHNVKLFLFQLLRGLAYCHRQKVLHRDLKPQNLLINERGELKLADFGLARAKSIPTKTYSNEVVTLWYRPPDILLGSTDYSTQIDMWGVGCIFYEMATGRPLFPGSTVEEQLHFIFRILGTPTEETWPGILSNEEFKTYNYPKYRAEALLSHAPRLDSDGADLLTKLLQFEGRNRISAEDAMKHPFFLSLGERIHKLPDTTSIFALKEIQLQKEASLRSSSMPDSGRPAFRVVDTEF
T1 sequence (Q8ND76 2-341 partner): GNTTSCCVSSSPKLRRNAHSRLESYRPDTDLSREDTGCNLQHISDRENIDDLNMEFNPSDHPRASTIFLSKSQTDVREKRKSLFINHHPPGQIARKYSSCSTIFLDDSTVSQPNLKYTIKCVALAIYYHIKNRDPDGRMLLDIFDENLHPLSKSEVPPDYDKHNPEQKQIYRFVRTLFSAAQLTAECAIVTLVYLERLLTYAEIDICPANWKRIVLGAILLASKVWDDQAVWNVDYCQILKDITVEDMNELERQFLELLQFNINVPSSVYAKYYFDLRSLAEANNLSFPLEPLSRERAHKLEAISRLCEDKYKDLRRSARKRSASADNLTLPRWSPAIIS

O=C1Nc2ccccc2/C1=C1/Nc2ccccc2/C1=N\OCCC(O)CO (stereo not shown) [indirubin E804]
IC50: 0.053 µM
